Key:
[1] = log P determination by HPLC (reversed-phase C18), EEC Directive 79/831 Annex V.A8; type: physicochemical; settings: reversed-phase C18 HPLC column; a) acidic range: 0.1% aqueous phosphoric acid, acetonitrile, linear gradient 10% to 90% acetonitrile; HPLC C18, 43° C.
Text: (a) Mobile phases for the determination in the acidic range: 0.1% aqueous phosphoric acid, acetonitrile; linear gradient from 10% acetonitrile to 90% acetonitrile—the corresponding test results in Table I are labelled a).
(b) Mobile phases for the determination in the neutral range: 0.01 molar aqueous phosphate buffer solution, acetonitrile; linear gradient from 10% acetonitrile to 90% acetonitrile—the corresponding test results in Table 1 are labelled b).

[2] = system: weeds; assay: Pre-emergence test (Example A); type: in vivo; settings: soil sprayed 24 hours after sowing, rated after three weeks vs untreated control
Description: (§1) Solvent: 5 parts by weight of acetone
(§2) Emulsifier: 1 part by weight of alkylaryl polyglycol ether
(§3) To produce a suitable preparation of active compound, 1 part by weight of active compound is mixed with the stated amount of solvent, the stated amount of emulsifier is added and the concentrate is diluted with water to the desired concentration.
Seeds of the test plants are sown in normal soil. After 24 hours, the soil is sprayed with the preparation of active compound such that the particular amount of active compound desired is applied per unit area. The concentration of active compound in the spray liquor is chosen such that the particular amount of active compound desired is applied in 1000 liters of water per hectare.
After three weeks, the degree of damage to the plants is rated in % damage in comparison to the development of the untreated control. The figures denote:
(§4) 0%=no effect (like untreated control)

[3] = system: weeds; assay: Post-emergence test (Example B); type: in vivo; settings: test plants of 5-15 cm sprayed, rated after three weeks vs untreated control
Description: as §1, §2, §3
Test plants of a height of 5-15 cm are sprayed with the preparation of active compound such that the particular amounts of active compound desired are applied per unit area. The concentration of the spray liquor is chosen such that the particular amounts of active compound desired are applied in 1000 l of water/ha.
After three weeks, the degree of damage to the plants is rated in % damage in comparison to the development of the untreated control.
as §4

| Compound | chromatographic logP [1] | activity against weeds (degree of damage to the plants) [2] | activity against weeds (degree of damage to the plants) [3] |
| --- | --- | --- | --- |
| O=c1cc(C(F)(F)F)[nH]c(=O)n1-c1cc(Oc2ncccn2)c(Br)cc1F [Example 1, 1-[4-bromo-2-fluoro-5-(pyrimidin-2-yl-oxy)-phenyl]-4-trifluoromethyl-3,6-dihydro-2,6-dioxo-1 (2H)-pyrimidine] | 1.96 | – | – |
| Cn1c(C(F)(F)F)cc(=O)n(-c2cc(Oc3ncccn3)c(Br)cc2F)c1=O [Example 2, 1-[4-bromo-2-fluoro-5-(pyrimidin-2-yl-oxy)-phenyl]-3-methyl-4-trifluoromethyl-3 ,6-dihydro-2,6-dioxo-1 (2H)-pyrimidine] | 2.47 | very strong activity | very strong activity |

Source: patent publication US6649760B2, “Substituted phenyluracils” (priority 2000, dated 2003)
